Assay results taken from patent US20160271263A1 (Novo Nordisk A/S, priority 2010, published 2016).
Numbered stars: 1 amine (or outer) side, 2 acyl side, 3 side chain; on linkers, the order of the positions; unused ones are H or OH. Square brackets hold non-standard residues; d marks the D form. Side chains are listed from the residue outwards. Peptide text beside a SMILES is read from it. * marks the point of attachment. C18 diacid = O=C(O)CCCCCCCCCCCCCCCCC(=O)*; γGlu = O=C(O)[C@H](CCC(=O)[*:2])N[*:1]; AEEA = NCCOCCOCC(=O)O

Target: glucagon receptor (Homo sapiens, UniProt P47871)
Sequence (P47871 26-477): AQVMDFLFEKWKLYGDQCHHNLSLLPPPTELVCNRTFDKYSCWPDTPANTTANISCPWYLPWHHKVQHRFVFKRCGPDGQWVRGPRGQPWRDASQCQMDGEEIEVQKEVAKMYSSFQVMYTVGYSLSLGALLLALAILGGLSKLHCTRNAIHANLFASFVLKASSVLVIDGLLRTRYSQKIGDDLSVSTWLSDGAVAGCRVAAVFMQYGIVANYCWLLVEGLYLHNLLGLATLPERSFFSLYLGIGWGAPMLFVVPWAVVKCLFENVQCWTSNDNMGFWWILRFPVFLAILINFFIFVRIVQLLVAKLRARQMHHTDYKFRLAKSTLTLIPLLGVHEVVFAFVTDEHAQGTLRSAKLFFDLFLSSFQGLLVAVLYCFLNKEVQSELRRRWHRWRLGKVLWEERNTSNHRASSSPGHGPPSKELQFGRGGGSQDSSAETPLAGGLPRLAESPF
Assay: cell-based

Row | SMILES | EC50 [nM]
1 | CC(C)C[C@H](NC(=O)[C@H](Cc1ccc(O)cc1)NC(=O)[C@H](CCCCN)NC(=O)[C@H](CO)NC(=O)[C@H](Cc1ccc(O)cc1)NC(=O)[C@H](CC(=O)O)NC(=O)[C@H](CO)NC(=O)[C@@H](NC(=O)[C@H](Cc1ccccc1)NC(=O)[C@@H](NC(=O)CNC(=O)[C@H](CCC(N)=O)NC(=O)[C@@H](CO)NC(=O)[C@@H](N)Cc1c[nH]cn1)[C@@H](C)O)[C@@H](C)O)C(=O)N[C@@H](CC(=O)O)C(=O)N[C@@H](CCC(=O)O)C(=O)N[C@@H](CCCNC(=N)N)C(=O)N[C@@H](CCCNC(=N)N)C(=O)N[C@@H](C)C(=O)N[C@@H](CCC(N)=O)C(=O)N[C@@H](CC(=O)O)C(=O)N[C@@H](Cc1ccccc1)C(=O)N[C@H](C(=O)N[C@@H](CCCCNC(=O)COCCOCCNC(=O)COCCOCCNC(=O)CC[C@H](NC(=O)CCCCCCCCCCCCCCCCC(=O)O)C(=O)O)C(=O)N[C@@H](Cc1c[nH]c2ccccc12)C(=O)N[C@@H](CC(C)C)C(=O)N[C@@H](CC(C)C)C(=O)N[C@@H](CC(N)=O)C(=O)N[C@H](C(=O)O)[C@@H](C)O)C(C)C [Example 2] (H-H[dS]QGTFTSDYSKYLDERRAQDFVK([AEEA-AEEA-γGlu-C18 diacid])WLLNT-OH; N-terminus and C-terminus assumed) | 0.149
2 | CC(C)C[C@H](NC(=O)[C@H](Cc1ccc(O)cc1)NC(=O)[C@H](CCCCN)NC(=O)[C@H](CO)NC(=O)[C@H](Cc1ccc(O)cc1)NC(=O)[C@H](CC(=O)O)NC(=O)[C@H](CO)NC(=O)[C@@H](NC(=O)[C@H](Cc1ccccc1)NC(=O)[C@@H](NC(=O)CNC(=O)[C@H](CCC(N)=O)NC(=O)[C@H](CO)NC(=O)[C@@H](N)Cc1c[nH]cn1)[C@@H](C)O)[C@@H](C)O)C(=O)N[C@@H](CC(=O)O)C(=O)N[C@@H](CO)C(=O)N[C@@H](CCCCN)C(=O)N[C@@H](CCCNC(=N)N)C(=O)N[C@@H](C)C(=O)N[C@@H](CCC(N)=O)C(=O)N[C@@H](CCC(=O)O)C(=O)N[C@@H](Cc1ccccc1)C(=O)N[C@H](C(=O)N[C@@H](CCCCNC(=O)COCCOCCNC(=O)COCCOCCNC(=O)CC[C@H](NC(=O)CCCCCCCCCCCCCCCCC(=O)O)C(=O)O)C(=O)N[C@@H](Cc1c[nH]c2ccccc12)C(=O)N[C@@H](CC(C)C)C(=O)N[C@@H](CC(C)C)C(=O)N[C@@H](CC(N)=O)C(=O)N[C@H](C(=O)O)[C@@H](C)O)C(C)C [Example 4] (H-HSQGTFTSDYSKYLDSKRAQEFVK([AEEA-AEEA-γGlu-C18 diacid])WLLNT-OH; N-terminus and C-terminus assumed) | 0.022
3 | CC(C)C[C@H](NC(=O)[C@H](Cc1ccc(O)cc1)NC(=O)[C@H](CCCCN)NC(=O)[C@H](CO)NC(=O)[C@H](Cc1ccc(O)cc1)NC(=O)[C@H](CC(=O)O)NC(=O)[C@H](CO)NC(=O)[C@@H](NC(=O)[C@H](Cc1ccccc1)NC(=O)[C@@H](NC(=O)CNC(=O)[C@H](CCC(N)=O)NC(=O)[C@H](CO)NC(=O)[C@@H](N)Cc1c[nH]cn1)[C@@H](C)O)[C@@H](C)O)C(=O)N[C@@H](CC(=O)O)C(=O)N[C@@H](CCCCNC(=O)COCCOCCNC(=O)COCCOCCNC(=O)CC[C@H](NC(=O)CCCCCCCCCCCCCCCCC(=O)O)C(=O)O)C(=O)N[C@@H](CCCCN)C(=O)N[C@@H](CCCNC(=N)N)C(=O)N[C@@H](C)C(=O)N[C@@H](CCC(N)=O)C(=O)N[C@@H](CCC(=O)O)C(=O)N[C@@H](Cc1ccccc1)C(=O)N[C@H](C(=O)N[C@@H](CCC(N)=O)C(=O)N[C@@H](Cc1c[nH]c2ccccc12)C(=O)N[C@@H](CC(C)C)C(=O)N[C@@H](CC(C)C)C(=O)N[C@@H](CC(N)=O)C(=O)N[C@H](C(=O)O)[C@@H](C)O)C(C)C [Example 5] (H-HSQGTFTSDYSKYLDK([AEEA-AEEA-γGlu-C18 diacid])KRAQEFVQWLLNT-OH; N-terminus and C-terminus assumed) | 0.02
4 | CC(C)C[C@H](NC(=O)[C@H](Cc1ccc(O)cc1)NC(=O)[C@H](CCCCN)NC(=O)[C@H](CO)NC(=O)[C@H](Cc1ccc(O)cc1)NC(=O)[C@H](CC(=O)O)NC(=O)[C@H](CO)NC(=O)[C@@H](NC(=O)[C@H](Cc1ccccc1)NC(=O)[C@@H](NC(=O)CNC(=O)[C@H](CCC(N)=O)NC(=O)[C@H](CO)NC(=O)[C@@H](N)Cc1c[nH]cn1)[C@@H](C)O)[C@@H](C)O)C(=O)N[C@@H](CC(=O)O)C(=O)N[C@@H](CCCCNC(=O)COCCOCCNC(=O)COCCOCCNC(=O)CC[C@H](NC(=O)CCCCCCCCCCCCCCCCC(=O)O)C(=O)O)C(=O)N[C@@H](CCCCN)C(=O)N[C@@H](CCCCN)C(=O)N[C@@H](C)C(=O)N[C@@H](CCC(N)=O)C(=O)N[C@@H](CCC(=O)O)C(=O)N[C@@H](Cc1ccccc1)C(=O)N[C@H](C(=O)N[C@@H](CCC(N)=O)C(=O)N[C@@H](Cc1c[nH]c2ccccc12)C(=O)N[C@@H](CC(C)C)C(=O)N[C@@H](CC(C)C)C(=O)N[C@@H](CC(N)=O)C(=O)N[C@H](C(=O)O)[C@@H](C)O)C(C)C [Example 6] (H-HSQGTFTSDYSKYLDK([AEEA-AEEA-γGlu-C18 diacid])KKAQEFVQWLLNT-OH; N-terminus and C-terminus assumed) | 0.02
5 | CC(C)C[C@H](NC(=O)[C@H](Cc1ccc(O)cc1)NC(=O)[C@H](CCCCN)NC(=O)[C@H](CO)NC(=O)[C@H](Cc1ccc(O)cc1)NC(=O)[C@H](CC(=O)O)NC(=O)[C@H](CO)NC(=O)[C@@H](NC(=O)[C@H](Cc1ccccc1)NC(=O)[C@@H](NC(=O)CNC(=O)[C@H](CCC(N)=O)NC(=O)[C@H](CO)NC(=O)[C@@H](N)Cc1c[nH]cn1)[C@@H](C)O)[C@@H](C)O)C(=O)N[C@@H](CC(=O)O)C(=O)N[C@@H](CO)C(=O)N[C@@H](CCCNC(=N)N)C(=O)N[C@@H](CCCNC(=N)N)C(=O)N[C@@H](C)C(=O)N[C@@H](CCC(N)=O)C(=O)N[C@@H](CC(=O)O)C(=O)N[C@@H](Cc1ccccc1)C(=O)N[C@H](C(=O)N[C@@H](CCC(N)=O)C(=O)N[C@@H](CCCCNC(=O)COCCOCCNC(=O)COCCOCCNC(=O)CC[C@H](NC(=O)CCCCCCCCCCCCCCCCC(=O)O)C(=O)O)C(=O)N[C@@H](CC(C)C)C(=O)N[C@@H](CC(C)C)C(=O)N[C@@H](CC(N)=O)C(=O)N[C@H](C(=O)O)[C@@H](C)O)C(C)C [Example 7] | 0.155
6 | CC(C)C[C@H](NC(=O)[C@H](Cc1ccc(O)cc1)NC(=O)[C@H](CCCCN)NC(=O)[C@H](CO)NC(=O)[C@H](Cc1ccc(O)cc1)NC(=O)[C@H](CC(=O)O)NC(=O)[C@H](CO)NC(=O)[C@@H](NC(=O)[C@H](Cc1ccccc1)NC(=O)[C@@H](NC(=O)CNC(=O)[C@H](CCC(N)=O)NC(=O)[C@H](CO)NC(=O)[C@@H](N)Cc1c[nH]cn1)[C@@H](C)O)[C@@H](C)O)C(=O)N[C@@H](CC(=O)O)C(=O)N[C@@H](CO)C(=O)N[C@@H](CCCNC(=N)N)C(=O)N[C@@H](CCCNC(=N)N)C(=O)N[C@@H](C)C(=O)N[C@@H](CCC(N)=O)C(=O)N[C@@H](CC(=O)O)C(=O)N[C@@H](Cc1ccccc1)C(=O)N[C@H](C(=O)N[C@@H](CCC(N)=O)C(=O)N[C@@H](Cc1c[nH]c2ccccc12)C(=O)N[C@@H](CC(C)C)C(=O)N[C@@H](CC(C)C)C(=O)N[C@@H](CCCCNC(=O)COCCOCCNC(=O)COCCOCCNC(=O)CC[C@H](NC(=O)CCCCCCCCCCCCCCCCC(=O)O)C(=O)O)C(=O)N[C@H](C(=O)O)[C@@H](C)O)C(C)C [Example 8] | 0.022
